Assay results from patent publication US20090005348A1, “Compounds Having Cytokine Modulating Properties” (VITAL HEALTH SCIENCES PTY LTD, priority 2005, published 2009).

Legend:
TNF = TNF level in the plasma of hypercholesterolemic rabbits; assay type: in vivo, New Zealand albino rabbits; settings: TA at 300 mg/kg feed, 2% cholesterol diet, 4 weeks
Description: (§1) 47 female New Zealand albino rabbits were obtained at 4-8 weeks of age. They were divided into 7 treatment groups, which consisted of 5-10 animals per group. All the animals were placed on a vitamin E stripped diet, and all the diets contained 2% cholesterol except for the control group (which contained no cholesterol) for 4 weeks (containing the various TA or TPm treatments outlined below). [table] At the end of the treatment period the animals were sacrificed and the blood collected. The plasma was obtained from this blood and the levels of various markers of inflammation were determined and included: IL-1β, IL-6, IL-8, TNF, PAI-1, and CRP. Other markers of inflammation such as CD36 was determined from mRNA isolated from the aortas of the rabbits to determine expression levels.

PAI-1 = PAI-1 activity in the plasma of hypercholesterolemic rabbits; assay type: in vivo, New Zealand albino rabbits; settings: TA at 300 mg/kg feed, 2% cholesterol diet, 4 weeks
Description: as §1

IL-1β = IL-1β level in the plasma of hypercholesterolemic rabbits; assay type: in vivo, New Zealand albino rabbits; settings: TA at 300 mg/kg feed, 2% cholesterol diet, 4 weeks
Description: as §1

[1] = system: T cells from old (>22 months) C57BL mice; test: T cell proliferation ([3H] thymidine, anti-CD3/anti-CD28), old mice; assay type: cell-based; settings: all the alpha-T treatments (12.5-100 μM), n=6, p<0.05, FIG. 8
Method: T cells from young (4 to 6 months) and old (>22 months) C57BL mice were isolated and purified from splenocytes by negative selection using Pan T cell isolation kit from Miltenyi Biotech.
The tocopherol phosphate mixture (alpha-TP) provided by Phosphagenics Limited was composed of approximately ⅔ mono-tocopheryl phosphate (MW 510.7) and ⅓ di-tocopheryl phosphate (MW 923.3), which makes the MW of the compound 598.0. Ethanol was used to dissolve the solid alpha-TP mixture to make a 107.52 mg/ml stock solution ([…]). 34 mg/ml alpha-tocopherol (alpha-T) in ethanol was used as a stock solution of alpha-T (79.06 mM). The solutions used for pre-incubation and incubation were prepared as follows: […]
After pre-incubation, the cells were stimulated (2×10^5 cells/well) in triplicate in a round bottom 96-well plate with plate-bound anti-CD3 (5 μg/ml, anti-CD3e (145-2C11), Pharmingen Cat# 553058) and soluble anti-CD28 (2 μg/ml, final concentration, anti-CD28 (37.51), Pharmingen Cat# 553294) in RPMI medium containing 5% FBS (final concentration and same concentration of vehicle, alpha-tocopherol or alpha-tocopherol phosphate used in the pre-incubation. The cells were incubated at 35° C., 5% CO2 for 64 hours, then, pulsed with 0.5 μCi of [^3H] thymidine for 8 hours. The cells were harvested onto filter paper and proliferation was quantified as the amount of [^3H] […]

CC(=O)Oc1c(C)c(C)c2c(c1C)CCC(C)(CCC[C@H](C)CCC[C@H](C)CCCC(C)C)O2 (stereo partly shown) [TA, tocopherol acetate]
plasma TNF (TNF): modest decreases
plasma PAI-1 activity (PAI-1): modest decreases
plasma IL-1β (IL-1β): modest decreases

Cc1c(C)c2c(c(C)c1O)CC[C@@](C)(CCC[C@H](C)CCC[C@H](C)CCCC(C)C)O2 [alpha-T, alpha-tocopherol]
T cell proliferation compared to vehicle [1]: significant increase in proliferation
